Data on 15 compounds can be found in patent publication US20250275958A1, “GPCR REGULATOR AND USE THEREOF” (BEIJING CHANGPING LABORATORY, priority 2022, published 2025).

For experiment [1], the system named is TNF-α. Briefly: Determination of level of tumor necrosis factor (TNF-α) as cell inflammatory marker, ELISA, LPS-treated HepG2 cells. Conditions: Homo sapiens, 48 h of drug administration, read-out: EC50 (activity in reducing TNF-α). The class given is cell-based. The method, then: HepG2 cells were inoculated in 96-well plates at a density of 30%. After incubation for 18 h to allow the cells to adhere to wall, the original culture medium was removed, and each well of the drug group was added with LPS culture medium (LPS concentration was […]), the control group was added with an equal amount of DMSO, and incubation was performed overnight. […] Three replicate wells were set for each compound. After 48 h of drug administration, the cell supernatant was collected with a sterile tube, and centrifuged for about 20 minutes (2000 to 3000 rpm). The supernatant was carefully collected. The TNF-α level was then determined using ELISA method. The specific steps were as follows: • Standard sample addition: Standard sample wells and sample wells were set, and 50 μL of standard sample at different concentrations was added to each standard sample well. • Sample addition: Blank wells (blank control wells was not added with sample and ELISA reagent, and the rest operations were the same) and test sample wells were set. First, 40 μL of sample diluent was added to each test sample well on an ELISA plate, and then 10 μL of the sample to be tested (the final dilution ratio of sample was 5) was added. The sample was added to the bottom of the well of the ELISA plate, not touching the well wall as much as possible, and then the gentle shaking was carried out for mixing. • Enzyme addition: 100 μL of ELISA reagent was added to each well, except for the blank wells. • Incubation: The plate was sealed with a sealing film and incubated at 37° C. for 60 minutes. • Solution preparation: 20-Fold concentrated washing solution was diluted by 20-fold with distilled water for later use. • Washing: The sealing film was carefully peeled off, the liquid was discarded, the plate was spin-dried; each well was filled with the washing solution, allowed to stand for 30 seconds and then the washing solution was discarded. This operation was repeated 5 times, and pat-drying was performed. • Color development: First, 50 μL of color developer A was added to each well, then 50 μL of color developer B was added, gently shaken and mixed, and color development was performed at 37° C. in the dark for 15 minutes. • Termination: 50 μL of termination liquid was added to each well to stop the reaction (the blue color immediately turned yellow). • Determination: Zero was set with the blank well, and the absorbance (OD value) at 450 nm of each well was measured in sequence. The determination should be performed within 15 minutes after adding the termination liquid.
TNF-α content in the sample to be tested could be calculated by drawing a standard curve based on the standard samples. TNF-α reduction rate was further calculated. The formula for calculating TNF-α reduction was Reduction rate (%)=TNF-α contentcontrol−TNF-α contentto be tested/TNF-α contentcontrol×100.
In the above experiment, the compounds with higher TNF-α reduction rate and lower EC50 value could better reduce the level of inflammation.

Experiment [2] addresses T1, GPR132 (Homo sapiens, UniProt Q9UNW8).
T1 construct: expressed in transfected cells; host or cells: HEK293 cells (transient co-transfection)
T1 sequence (Q9UNW8 1-380): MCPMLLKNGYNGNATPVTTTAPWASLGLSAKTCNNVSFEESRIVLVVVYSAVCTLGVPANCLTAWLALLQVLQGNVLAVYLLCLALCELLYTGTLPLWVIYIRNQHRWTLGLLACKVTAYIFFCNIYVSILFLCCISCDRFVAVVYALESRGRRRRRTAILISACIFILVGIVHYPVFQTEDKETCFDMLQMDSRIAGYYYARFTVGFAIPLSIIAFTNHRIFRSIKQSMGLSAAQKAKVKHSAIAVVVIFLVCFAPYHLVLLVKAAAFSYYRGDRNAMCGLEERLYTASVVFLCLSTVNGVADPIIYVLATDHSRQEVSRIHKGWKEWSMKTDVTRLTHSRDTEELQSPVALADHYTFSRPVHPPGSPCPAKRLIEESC
Briefly: G protein activation (Gi BRET probes, GPR132 co-transfected in HEK293 cells). The experiment is classed as cell-based. The conditions noted are these: stimulated 2 minutes, read-out: GPR132 EC50 (GPR132 agonist activity). As to the method:
Gi BRET probes were generated according to previous literature (Olsen et al., 2020), and included Gαi-RLuc8, Gβ3, and Gγ9-GFP2. GPR132 and Gi BRET probes were transiently co-transfected in HEK293 cells. 24 hours after transfection, the cells were distributed into 96-well microplates at a density of 5×10^4 cells per well and cultured for another 24 hours. The cells were washed twice with Tyrode buffer and stimulated with compound ligands at different concentrations (10^−12 to 10^−5 M) for 2 minutes. After adding coelenterazine, the substrate of luciferase, 400a (5 μM), BRET signal was measured using a Mithras LB940 microplate reader equipped with a BRET filter set. The BRET signal was calculated as the emission light ratio at 510 nm/400 nm.
The compounds with lower EC50 values in the above experiments had good GPR132 agonist activity.
(Bioluminescence resonance energy transfer reports proximity on the nanometre scale.)

Where two headings read alike, the source gives them in different places.

`Cc1c(C(=O)O)oc2ccc(S(=O)(=O)N(CCc3ccccc3)c3ccccc3)cc12` [Example 27, 3-METHYL-5-(N-PHENETHYL-N-PHENYLSULFAMOYL)BENZOFURAN-2-CARBOXYLIC ACID]: the EC50 (usually the concentration giving half of the maximal effect) in experiment [1] (class symbols) lay within 10 to 50 µM; in experiment [2] (class symbols) it was 1 to 10 µM.

As to `Cc1c(C(=O)O)oc2ccc(NC(=O)/C=C/c3cccc(I)c3)cc12` [Example 18, (E)-5-(3-(3-IODOPHENYL)ACRYLAMIDO)-3-METHYLBENZOFURAN-2-CARBOXYLIC ACID], the EC50 in experiment [1] worked out at 1 µM; in experiment [2], 0.51 µM.

With `Cc1c(C(=O)O)oc2ccc(S(=O)(=O)N(CCc3ccccc3)CCc3ccccc3)cc12` [Example 28, 3-Methyl-5-(N,N-diphenylethylsulfamoyl)benzofuran-2-carboxylic acid], the half-maximal effective concentration (EC50) in experiment [1] worked out at 3.1 µM; in experiment [2] it was 2.1 µM.

With `Cc1c(C(=O)O)oc2ccc(NC(=O)[C@H]3C[C@H]3c3ccccc3)cc12` [Example 19, 3-METHYL-5-((1S,2R)-2-PHENYLCYCLOPROPANE-1-CARBOXAMIDO) BENZOFURAN-2-CARBOXYLIC ACID], the EC50 in experiment [1] (class symbols) lay in the range of 10 to 50 µM; in experiment [2] (class symbols), 1 to 10 µM.

For `Cc1c(C(=O)O)oc2ccc(S(=O)(=O)N(CCc3ccccc3)Cc3ccccc3)cc12` [Example 23, 3-METHYL-5-(N-BENZYL-N-PHENYLETHYLSULFAMOYL)BENZOFURAN-2-CARBOXYLIC ACID], the EC50 in experiment [1] was 5.9 µM; in experiment [2], 3.8 µM.

Consider `Cc1c(C(=O)O)oc2ccc(NC(=O)CCCCc3ccccc3)cc12` [Example 21, 3-METHYL-5-(5-PHENYLVALERAMIDO)BENZOFURAN-2-CARBOXYLIC ACID], for which the EC50 in experiment [1] (class symbols) is 0.01 to 10 µM; in experiment [2] (class symbols), 1 to 10 µM.

With `Cc1c(C(=O)O)oc2ccc(S(=O)(=O)N(CCc3ccccc3)c3ccc(N4CCN(S(C)(=O)=O)CC4)cc3)cc12` [Example 29, 3-METHYL-5-(N-(4-(4-(METHYLSULFONYL)PIPERAZIN-1-YL)PHENYL)-N-PHENYLETHYLSULFAMOYL)BENZOFURAN-2-CARBOXYLIC ACID], the EC50 lay in the range of 10 to 50 µM in experiment [1] (class symbols) and 1 to 10 µM in experiment [2] (class symbols).

Turning to `Cc1c(C(=O)O)oc2ccc(NC(=O)CCC(=O)c3ccccc3)cc12` [Example 20], the EC50 in experiment [1] (class symbols) was in the range of 0.01 to 10 µM; in experiment [2] (class symbols), 0.01 to 1 µM.

`Cc1c(C(=O)O)oc2ccc(OCCCc3ccccc3)cc12` [Example 22, 3-METHYL-5-(3-PHENYLPROPOXY)BENZOFURAN-2-CARBOXYLIC ACID]: the EC50 lay in the range of 0.01 to 10 µM in experiment [1] (class symbols) and 0.01 to 1 µM in experiment [2] (class symbols).

For `Cc1c(C(=O)O)oc2ccc(NC(=O)/C=C/c3ccccc3)cc12` [Example 17], the EC50 in experiment [1] (class symbols) was in the range of 0.01 to 10 µM; in experiment [2] (class symbols) it was 0.01 to 1 µM.

On to `Cc1c(C(=O)O)oc2ccc(S(=O)(=O)N(CCc3ccccc3)Cc3ccc(C(=O)OC(C)(C)C)cc3)cc12` [Example 25, 3-METHYL-5-(N-(4-(TERT-BUTYLOXYCARBONYL)BENZYL)-N-PHENYLETHYLSULFAMOYL) BENZOFURAN-2-CARBOXYLIC ACID], for which the EC50 in experiment [1] (class symbols) fell in the range of 0.01 to 10 µM; in experiment [2] (class symbols), 0.01 to 1 µM.

Take `Cc1c(C(=O)O)oc2ccc(S(=O)(=O)N(CCc3ccccc3)Cc3cccc4cccnc34)cc12` [Example 26, 3-METHYL-5-(N-(QUINOLIN-8-YLMETHYL)-N-PHENYLETHYLSULFAMOYL)BENZOFURAN-2-CARBOXYLIC ACID]: the EC50 in experiment [1] (class symbols) lay in the range of 10 to 50 µM; in experiment [2] (class symbols) it was 1 to 10 µM.

On to `Cc1c(C(=O)O)oc2ccc(NC(=O)CCc3ccccc3)cc12` [Example 16], for which the EC50 in experiment [1] was found to be 10.2 µM; in experiment [2] it was 6.5 µM.

In the case of `Cc1c(C(=O)O)oc2ccc(S(=O)(=O)N(CCc3ccccc3)c3ccc(Oc4ccccc4)cc3)cc12` [Example 30, 3-METHYL-5-(N-(4-PHENOXYPHENYL)-N-PHENYLETHYLSULFAMOYL)BENZOFURAN-2-CARBOXYLIC ACID], the EC50 in experiment [1] (class symbols) lay in the range of 10 to 50 µM; in experiment [2] (class symbols), 0.01 to 1 µM.

As to `Cc1c(C(=O)O)oc2ccc(S(=O)(=O)N(CCc3ccccc3)Cc3ccc(Br)cc3)cc12` [Example 24, 3-METHYL-5-(N-(4-BROMOBENZYL)-N-PHENYLETHYLSULFAMOYL)BENZOFURAN-2-CARBOXYLIC ACID], the EC50 in experiment [1] is 0.7 µM; in experiment [2] it was 0.3 µM.
